Key:
Type in all cases: in vivo
[1] = tested on: Yellow Fever Mosquito (Aedes aegypti); experiment: Bioassays on Yellow Fever Mosquito larvae, 96-well plate; settings: from 4000 ppm DMSO master plate, about 1 day-old larvae, 3 days
How it was run: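 Aedes aegypti larvae about 1 day old, in water with liver powder, exposed in 96-well plates to compounds from a 4000 ppm DMSO master solution diluted in 90:10 water:acetone. Plates covered and held at room temperature for 3 days, then each well scored for mortality; 6 replicate plates.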

[2] = tested on: Cabbage Looper (Trichoplusia ni); experiment: Bioassays on CL, 128-well diet tray assay; settings: 50 μg/cm^2 on artificial diet, second instar larvae, five to seven days; for mortality at 50 µg/cm2: Trichoplusia ni, 168 h, read-out: CL % Control (or Mortality) rating
How it was run: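 Second-instar larvae (1–5 per well) were fed diet surface-treated with 50 μg/cm^2 compound, eight wells each. After five to seven days at 25° C. under a 14:10 photoperiod, mortality was scored per well and the eight wells averaged.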

[3] = tested on: Beet Armyworm (Spodoptera exigua); experiment: Bioassays on BAW, 128-well diet tray assay; settings: 50 μg/cm^2 on artificial diet, second instar larvae, five to seven days; for mortality at 50 µg/cm2: Spodoptera exigua, 168 h, read-out: BAW % Control (or Mortality) rating

| SMILES | YFM % Control (or Mortality) rating [1] | mortality at 50 µg/cm2 [2] [%] | mortality at 50 µg/cm2 [3] [%] | CL % Control (or Mortality) rating [2] | BAW % Control (or Mortality) rating [3] |
| --- | --- | --- | --- | --- | --- |
| CCSC[C@@H](C)NC(=O)c1ccc(/C=C/C(c2cc(Cl)c(Cl)c(Cl)c2)C(F)(F)F)cc1C(F)(F)F (stereo partly drawn) [F62, N—((R)-1-(Ethylthio)propan-2-yl)-4-((E)-4,4,4-trifluoro-3-(3,4,5-trichlorophenyl)but-1-en-1-yl)-2-(trifluoromethyl)benzamide] | A (80-100) | 50 to 100 | 50 to 100 |  |  |
| C[C@H](CS(=O)(=O)CC(F)(F)F)NC(=O)c1ccc(/C=C/C(c2cc(Cl)c(F)c(Cl)c2)C(F)(F)F)cc1Br (stereo partly drawn) [F52, 2-Bromo-4-((E)-3-(3,5-dichloro-4-fluorophenyl)-4,4,4-trifluorobut-1-en-1-yl)-N—((R)-1-((2,2,2-trifluoroethyl)sulfonyl)propan-2-yl)benzamide] | A (80-100) | 50 to 100 | 50 to 100 |  |  |
| Cc1cc(/C=C/C(c2cc(Cl)c(Cl)c(Cl)c2)C(F)(F)F)cc(F)c1C(=O)N[C@H](C)C[S+]([O-])CC(F)(F)F (stereo partly drawn) [F99, 2-Fluoro-6-methyl-4-((E)-4,4,4-trifluoro-3-(3,4,5-trichlorophenyl)but-1-en-1-yl)-N-((2R)-1-((2,2,2-trifluoroethyl)sulfinyl)propan-2-yl)benzamide] | A (80-100) | 50 to 100 | 50 to 100 |  |  |
| CC(F)(F)C(/C=C/c1ccc(C(=O)NCCS(=O)(=O)CC(F)(F)F)c(C(F)(F)F)c1)c1cc(Cl)c(Cl)c(Cl)c1 (stereo not drawn) [F126, (E)-4-(4,4-Difluoro-3-(3,4,5-trichlorophenyl)pent-1-en-1-yl)-N-(2-((2,2,2-trifluoroethyl)sulfonyl)ethyl)-2-(trifluoromethyl)benzamide] | B (More than 0-Less than 80) | 50 to 100 | 50 to 100 |  |  |
| CS(=O)(=O)CC[C@@H](NC(=O)c1ccc(/C=C/C(c2cc(Cl)c(Cl)c(Cl)c2)C(F)(F)F)cc1C(F)(F)F)C(=O)NCC(F)(F)F (stereo partly drawn) [F27, N—((R)-4-(Methylsulfonyl)-1-oxo-1-((2,2,2-trifluoroethyl)amino)butan-2-yl)-4-((E)-4,4,4-trifluoro-3-(3,4,5-trichlorophenyl)but-1-en-1-yl)-2-(trifluoromethyl)benzamide] | A (80-100) |  |  | A (50-100) | A (50-100) |
| CC[C@H](CSCCC(F)(F)F)NC(=O)c1ccc(/C=C/C(c2cc(Cl)c(Cl)c(Cl)c2)C(F)(F)F)cc1C(F)(F)F (stereo partly drawn) [F11, 4-((E)-4,4,4-trifluoro-3-(3,4,5-trichlorophenyl)but-1-en-1-yl)-2-(trifluoromethyl)-N—((R)-1-((3,3,3-trifluoropropyl)thio)butan-2-yl)benzamide] | B (More than 0-Less than 80) | 50 to 100 | 50 to 100 |  |  |
| NC(=O)[C@H](CSCC(F)(F)F)NC(=O)c1ccc(/C=C/C(c2cc(Cl)c(Cl)c(Cl)c2)C(F)(F)F)cc1C(F)(F)F (stereo partly drawn) [F125, N—((R)-1-Amino-1-oxo-3-((2,2,2-trifluoroethyl)thio)propan-2-yl)-4-((E)-4,4,4-trifluoro-3-(3,4,5-trichlorophenyl)but-1-en-1-yl)-2-(trifluoromethyl)benzamide] | A (80-100) | 50 to 100 | 50 to 100 |  |  |
| CC[C@H](CSCC1CC1(F)F)NC(=O)c1ccc(/C=C/C(c2cc(Cl)c(Cl)c(Cl)c2)C(F)(F)F)cc1C(F)(F)F (stereo partly drawn) [F13, N-((2R)-1-(((2,2-Difluorocyclopropyl)methyl)thio)butan-2-yl)-4-((E)-4,4,4-trifluoro-3-(3,4,5-trichlorophenyl)but-1-en-1-yl)-2-(trifluoromethyl)benzamide] | A (80-100) | 50 to 100 | 50 to 100 |  |  |
| C=CC[S+]([O-])C[C@@H](C)NC(=O)c1ccc(/C=C/C(c2cc(Cl)c(Cl)c(Cl)c2)C(F)(F)F)cc1C(F)(F)F (stereo partly drawn) [F103, N-((2R)-1-(Allylsulfinyl)propan-2-yl)-4-((E)-4,4,4-trifluoro-3-(3,4,5-trichlorophenyl)but-1-en-1-yl)-2-(trifluoromethyl)benzamide] | A (80-100) | 50 to 100 | 50 to 100 |  |  |
| Cc1cc(/C=C/C(c2cc(Cl)cc(Cl)c2)C(F)(F)F)ccc1C(=O)N[C@H](C)CSCC(F)(F)F (stereo partly drawn) [F89, 4-((E)-3-(3,5-Dichlorophenyl)-4,4,4-trifluorobut-1-en-1-yl)-2-methyl-N—((R)-1-((2,2,2-trifluoroethyl)thio)propan-2-yl)benzamide] | A (80-100) | 50 to 100 | 50 to 100 |  |  |
| CC(C)SC[C@@H](C)NC(=O)c1ccc(/C=C/C(c2cc(Cl)c(Cl)c(Cl)c2)C(F)(F)F)cc1C(F)(F)F (stereo partly drawn) [F86, N-((R)-1-(Isopropylthio)propan-2-yl)-4-((E)-4,4,4-trifluoro-3-(3,4,5-trichlorophenyl)but-1-en-1-yl)-2-(trifluoromethyl) benzamide] | A (80-100) | 50 to 100 | 50 to 100 |  |  |
| C[C@H](CS(=O)(=O)CC(F)(F)F)NC(=O)c1ccc(/C=C/C(c2cc(Cl)cc(Cl)c2)C(F)(F)F)cc1C(F)(F)F (stereo partly drawn) [F93, 4-((E)-3-(3,5-Dichlorophenyl)-4,4,4-trifluorobut-1-en-1-yl)-N—((R)-1-((2,2,2-trifluoroethyl)sulfonyl)propan-2-yl)-2-(trifluoromethyl)benzamide] | A (80-100) | 50 to 100 | 50 to 100 |  |  |
| O=C(NC1(CSCC(F)(F)F)CC1)c1ccc(/C=C/C(c2cc(Cl)c(Cl)c(Cl)c2)C(F)(F)F)cc1C(F)(F)F (stereo not drawn) [F110, (E)-4-(4,4,4-Trifluoro-3-(3,4,5-trichlorophenyl)but-1-en-1-yl)-N-(1-(((2,2,2-trifluoroethyl)thio)methyl)cyclopropyl)-2-(trifluoromethyl)benzamide] | A (80-100) | 50 to 100 | 50 to 100 |  |  |
| CC(C)CSC[C@@H](C)NC(=O)c1ccc(/C=C/C(c2cc(Cl)c(Cl)c(Cl)c2)C(F)(F)F)cc1C(F)(F)F (stereo partly drawn) [F85, N—((R)-1-(Isobutylthio)propan-2-yl)-4-((E)-4,4,4-trifluoro-3-(3,4,5-trichlorophenyl)but-1-en-1-yl)-2-(trifluoromethyl)benzamide] | A (80-100) | 50 to 100 | 50 to 100 |  |  |
| C[C@H](C[S+]([O-])CC(F)(F)F)NC(=O)c1ccc(/C=C/C(c2cc(Cl)c(F)c(Cl)c2)C(F)(F)F)cc1C(F)(F)F (stereo partly drawn) [F37] | A (80-100) | 50 to 100 | 50 to 100 |  |  |
| C[C@H](C[S+]([O-])CC(F)(F)F)NC(=O)c1ccc(/C=C/C(c2cc(Cl)cc(Cl)c2)C(F)(F)F)cc1Cl (stereo partly drawn) [F94, 2-Chloro-4-((E)-3-(3,5-dichlorophenyl)-4,4,4-trifluorobut-1-en-1-yl)-N-((2R)-1-((2,2,2-trifluoroethyl)sulfinyl)propan-2-yl)benzamide] | A (80-100) | 50 to 100 | 50 to 100 |  |  |
| C[C@H](C[S+]([O-])CC(F)(F)F)NC(=O)c1ccc(/C=C/C(c2cc(Br)cc(Br)c2)C(F)(F)F)cc1Cl (stereo partly drawn) [F72, 2-Chloro-4-((E)-3-(3,5-dibromophenyl)-4,4,4-trifluorobut-1-en-1-yl)-N-((2R)-1-((2,2,2-trifluoroethyl)sulfinyl)propan-2-yl)benzamide] | A (80-100) | 50 to 100 | 50 to 100 |  |  |
| CC(C)[C@H](CSCC(F)(F)F)NC(=O)c1ccc(/C=C/C(c2cc(Cl)c(Cl)c(Cl)c2)C(F)(F)F)cc1C(F)(F)F (stereo partly drawn) [F14, N—((R)-3-Methyl-1-((2,2,2-trifluoroethyl)thio)butan-2-yl)-4-((E)-4,4,4-trifluoro-3-(3,4,5-trichlorophenyl)but-1-en-1-yl)-2-(trifluoromethyl)benzamide] | A (80-100) | 50 to 100 | 50 to 100 |  |  |
| Cc1cc(/C=C/C(c2cc(Br)cc(Br)c2)C(F)(F)F)ccc1C(=O)N[C@H](C)C[S+]([O-])CC(F)(F)F (stereo partly drawn) [F73, 4-((E)-3-(3,5-Dibromophenyl)-4,4,4-trifluorobut-1-en-1-yl)-2-methyl-N-((2R)-1-((2,2,2-trifluoroethyl)sulfinyl)propan-2-yl)benzamide] | A (80-100) | 50 to 100 | 50 to 100 |  |  |
| C[C@H](CS(=O)(=O)NCC(F)(F)F)NC(=O)c1ccc(/C=C/C(c2cc(Cl)c(Cl)c(Cl)c2)C(F)(F)F)cc1C(F)(F)F (stereo partly drawn) [F45, 4-((E)-4,4,4-Trifluoro-3-(3,4,5-trichorophenyl)but-1-en-1-yl)-N—((R)-1-(N-(2,2,2-trifluoroethyl)sulfamoyl)propan-2-yl)-2-(trifluoromethyl)benzamide] | A (80-100) | 50 to 100 | 50 to 100 |  |  |
| Cc1cc(/C=C/C(c2cc(Cl)cc(Cl)c2)C(F)(F)F)ccc1C(=O)N[C@H](C)C[S+]([O-])CC(F)(F)F (stereo partly drawn) [F91, 4-((E)-3-(3,5-Dichlorophenyl)-4,4,4-trifluorobut-1-en-1-yl)-2-methyl-N-((2R)-1-((2,2,2-trifluoroethyl)sulfinyl)propan-2-yl)benzamide] | A (80-100) | 50 to 100 | 50 to 100 |  |  |

From US20170210723A1, “MOLECULES HAVING PESTICIDAL UTILITY, AND INTERMEDIATES, COMPOSITIONS, AND PROCESSES, RELATED THERETO” (priority 2016, published 2017)
